Measurements as given in patent US9187474B2, “Raf inhibitor compounds” (Deciphera Pharmaceuticals, LLC, priority 2012, dated 2015).
Where a name gives a salt, the structure may show the parent alone.

What was measured:
A375res cells [1] = tested on: A375res cells
Text: (§1) A vemurafenib-resistant cell line is generated by chronic treatment of the human melanoma cell line A375 (ATCC) harboring the B-Raf V600E mutation with increasing concentrations PLX4720.

A375res cells [2] = assay: Proliferation assay in vemurafenib-resistant A375res melanoma cells; conditions: Homo sapiens, 72 h, read-out: absolute IC50 values
Text: as §1

[3] = tested on: phospho-ERK in HCT-116 cells; assay: HCT-116 cell pERK assay (AlphaScreen SureFire); format: cell-based; conditions: Homo sapiens; HCT-116 cells, B-Raf wild type, K-Ras mutation; 4 hours; read-out: IC50 reduction of phospho-ERK signal
Procedure: Examples of Formula I are tested against HCT-116 cells harboring wild type B-Raf and K-Ras mutation. The phospho-ERK activities are evaluated as described below.
HCT-116 cells (catalog #CCL-247) are obtained from the American Type Culture Collection (ATCC, Manassas, Va.). Briefly, cells are grown in McCoy's 5A supplemented with 10% characterized fetal bovine serum (Invitrogen, Carlsbad, Calif.), and 1% Penicillin/Streptomycin/L-Glutamine at 37 degrees Celsius, 5% CO2, and 95% humidity. Cells are allowed to expand until reaching 75-90% confluency at which point they are subcultured or harvested for assay use. HCT-116 cells suspended in complete media are added to 384-well tissue culture treated plates (3×10^5 cells/mL; 7,500 cells per well). The cells are incubated overnight at 37 degrees Celsius, 5% CO2, and 95% humidity. Next, test compound or DMSO diluted in complete media is added to the wells (0.25% final DMSO concentration). The plates are then incubated for 4 hours at 37 degrees Celsius, 5% CO2, and 95% humidity. Following compound incubation, the cells are lysed at 4° C. for 20 minutes with shaking Cell lysates are centrifuged and the supernatant is transferred to a new plate. An aliquot of each lysate is transferred to a white 384-well assay plate. Using the AlphaScreen SureFire pERK kit (Perkin-Elmer, Waltham, Mass.), an acceptor bead mixture is added to each well and incubated for 2 h at room temperature in the dark. A donor bead mixture is then added to each well and incubated for 2 h at room temperature in the dark. Plates are read using a Synergy2 plate reader (Biotek, Winooski, Vt.) in Plate Mode with Timing Control. Read: (F)1: excitation: 680/30 nm, emission: Plug. 2: Excitation: Plug, emission: 570/100 nm. Top mirror 635 nm. Data is analyzed using Prism software (Graphpad, San Diego, Calif.) to calculate IC50 values and Excel software (Microsoft, Redmond, Wash.) to calculate stimulation compared to control.

| SMILES | IC50 shift A375 to A375res (A375res cells [1]) | IC50 (A375res cells [2]) [nM] | IC50 [3] [nM] |
| --- | --- | --- | --- |
| CNc1cc2nc(C)c(-c3cc(NC(=O)N[C@H]4CC[C@](C)(C#N)CC4)c(F)cc3C)cc2cn1 [Example 25, 1-(trans-4-cyano-4-methylcyclohexyl)-3-(2-fluoro-4-methyl-5-(2-methyl-7-(methylamino)-1,6-naphthyridin-3-yl)phenyl)urea] | 0.5-4.9 fold | 9 to 504 | – |
| CNc1cc2nc(C)c(-c3cc(NC(=O)N[C@H]4CC[C@@](C)(C#N)CC4)c(F)cc3C)cc2cn1 [Example 26, 1-(cis-4-cyano-4-methylcyclohexyl)-3-(2-fluoro-4-methyl-5-(2-methyl-7-(methylamino)-1,6-naphthyridin-3-yl)phenyl)urea] | 0.5-4.9 fold | 9 to 504 | – |
| CNc1cc2nc(C)c(-c3cc(NC(=O)NCCC4(C)CC4)c(F)cc3C)cc2cn1 [Example 27, 1-(2-fluoro-4-methyl-5-(2-methyl-7-(methylamino)-1,6-naphthyridin-3-yl)phenyl)-3-(2-(1-methylcyclopropyl)ethyl)urea hydrochloride] | 0.5-4.9 fold | 9 to 504 | – |
| CNc1cc2nc(C)c(-c3cc(NC(=O)NCCC4(OC)CC4)c(F)cc3F)cc2cn1 [Example 28, 1-(2,4-difluoro-5-(2-methyl-7-(methylamino)-1,6-naphthyridin-3-yl)phenyl)-3-(2-(1-methoxycyclopropyl)ethyl)urea] | 0.5-4.9 fold | 9 to 504 | – |
| CNc1cc2nc(C)c(-c3cc(NC(=O)NCC4CCCCC4)c(F)cc3C)cc2cn1 [Example 29, 1-(cyclohexylmethyl)-3-(2-fluoro-4-methyl-5-(2-methyl-7-(methylamino)-1,6-naphthyridin-3-yl)phenyl)urea hydrochloride] | 0.5-4.9 fold | 9 to 504 | – |
| CCOC(C)(C)CCNC(=O)Nc1cc(-c2cc3cnc(NC)cc3nc2C)c(C)cc1F [Example 30, 1-(3-ethoxy-3-methylbutyl)-3-(2-fluoro-4-methyl-5-(2-methyl-7-(methylamino)-1,6-naphthyridin-3-yl)phenyl)urea hydrochloride] | 0.5-4.9 fold | 9 to 504 | – |
| CNc1cc2nc(C)c(-c3cc(NC(=O)NCCC4(OC)CC4)c(F)cc3C)cc2cn1 [Example 31, 1-(2-fluoro-4-methyl-5-(2-methyl-7-(methylamino)-1,6-naphthyridin-3-yl)phenyl)-3-(2-(1-methoxycyclopropyl)ethyl)urea hydrochloride] | 0.5-4.9 fold | 9 to 504 | – |
| CNc1cc2ncc(-c3cc(NC(=O)NCCC(C)(C)OC)c(F)cc3C)cc2cn1 [Example 32, 1-(2-fluoro-4-methyl-5-(7-(methylamino)-1,6-naphthyridin-3-yl)phenyl)-3-(3-methoxy-3-methylbutyl)urea] | 0.5-4.9 fold | 9 to 504 | – |
| CNc1cc2nc(C)c(-c3cc(NC(=O)NCCCC(C)(C)OC)c(F)cc3C)cc2cn1 [Example 33, 1-(2-fluoro-4-methyl-5-(2-methyl-7-(methylamino)-1,6-naphthyridin-3-yl)phenyl)-3-(4-methoxy-4-methylpentyl)urea hydrochloride] | 0.5-4.9 fold | 9 to 504 | – |
| Cc1cc(F)c(NC(=O)NCCC(C)(C)C#N)cc1-c1cc2cnc(N)cc2nc1C [Example 44, 1-(5-(7-amino-2-methyl-1,6-naphthyridin-3-yl)-2-fluoro-4-methylphenyl)-3-(3-cyano-3-methylbutyl)urea] | 0.5-4.9 fold | 9 to 504 | – |
| CNc1cc2nc(C)c(-c3cc(NC(=O)NC(C)CC(C)(C)C)c(F)cc3C)cc2cn1 (centres unmarked) [Example 59, 1-(4,4-dimethylpentan-2-yl)-3-(2-fluoro-4-methyl-5-(2-methyl-7-(methylamino)-1,6-naphthyridin-3-yl)phenyl)urea] | 0.5-4.9 fold | 9 to 504 | – |
| CNc1cc2nc(C)c(-c3cc(NC(=O)NCC(O)C(C)C)c(F)cc3C)cc2cn1 (centres unmarked) [Example 60, 1-(2-fluoro-4-methyl-5-(2-methyl-7-(methylamino)-1,6-naphthyridin-3-yl)phenyl)-3-(2-hydroxy-3-methylbutyl)urea] | 0.5-4.9 fold | 9 to 504 | – |
| CNc1cc2nc(C)c(-c3cc(NC(=O)NCC(O)C(F)(F)F)c(F)cc3C)cc2cn1 (centres unmarked) [Example 61, 1-(2-fluoro-4-methyl-5-(2-methyl-7-(methylamino)-1,6-naphthyridin-3-yl)phenyl)-3-(3,3,3-trifluoro-2-hydroxypropyl)urea] | 0.5-4.9 fold | 9 to 504 | – |
| Cc1cc(F)c(NC(=O)NCCC(C)(C)F)cc1-c1cc2cnc(NCCO)cc2nc1C [Example 65, 1-(3-fluoro-3-methylbutyl)-3-(2-fluoro-5-(7-((2-hydroxyethyl)amino)-2-methyl-1,6-naphthyridin-3-yl)-4-methylphenyl)urea] | 0.5-4.9 fold | 9 to 504 | – |
| CNc1cc2nc(C)c(-c3cc(NC(=O)N[C@H](C)CC(C)(C)C)c(F)cc3C)cc2cn1 [Example 72, (R)-1-(4,4-dimethylpentan-2-yl)-3-(2-fluoro-4-methyl-5-(2-methyl-7-(methylamino)-1,6-naphthyridin-3-yl)phenyl)urea] | 0.5-4.9 fold | 9 to 504 | – |
| COC(C)(C)CCNC(=O)Nc1cc(-c2cc3cnc(N)cc3nc2C)c(C)cc1F [Example 80, 1-(5-(7-amino-2-methyl-1,6-naphthyridin-3-yl)-2-fluoro-4-methylphenyl)-3-(3-methoxy-3-methylbutyl)urea hydrochloride] | 0.5-4.9 fold | 9 to 504 | – |
| Cc1cc(F)c(NC(=O)NCCC(C)(C)F)cc1-c1cnc2cc(N)ncc2c1 [Example 81, 1-(5-(7-amino-1,6-naphthyridin-3-yl)-2-fluoro-4-methylphenyl)-3-(3-fluoro-3-methylbutyl)urea] | 0.5-4.9 fold | 9 to 504 | – |
| Cc1cc(F)c(NC(=O)NC2CCCCCC2)cc1-c1cc2cnc(N)cc2nc1C [Example 82, 1-(5-(7-amino-2-methyl-1,6-naphthyridin-3-yl)-2-fluoro-4-methylphenyl)-3-cycloheptylurea] | 0.5-4.9 fold | 9 to 504 | – |
| CNc1cc2nc(C)c(-c3cc(NC(=O)NCCCC(F)(F)F)c(F)cc3C)cc2cn1 [Example 91, hydrochloride] | 0.5-4.9 fold | 9 to 504 | – |
| CNc1cc2nc(C)c(-c3cc(NC(=O)NCCC4CCC4)c(F)cc3C)cc2cn1 [Example 97, 1-(2-cyclobutylethyl)-3-(2-fluoro-4-methyl-5-(2-methyl-7-(methylamino)-1,6-naphthyridin-3-yl)phenyl)urea hydrochloride] | 0.5-4.9 fold | 9 to 504 | – |
| CNc1cc2nc(C)c(-c3cc(NC(=O)NCCCC(C)(F)F)c(F)cc3C)cc2cn1 [Example 99, 1-(4,4-difluoropentyl)-3-(2-fluoro-4-methyl-5-(2-methyl-7-(methylamino)-1,6-naphthyridin-3-yl)phenyl)urea hydrochloride] | 0.5-4.9 fold | 9 to 504 | – |
| CNc1cc2nc(C)c(-c3cc(NC(=O)N[C@H]4C[C@@](C)(F)C4)c(F)cc3C)cc2cn1 [Example 100, 1-(3-fluoro-trans(3-methylcyclobutyl))-3-(2-fluoro-4-methyl-5-(2-methyl-7-(methylamino)-1,6-naphthyridin-3-yl)phenyl)urea] | 0.5-4.9 fold | 9 to 504 | – |
| CNc1cc2nc(C)c(-c3cc(NC(=O)NCCCC(C)(C)F)c(F)cc3C)cc2cn1 [Example 101, 1-(2-fluoro-4-methyl-5-(2-methyl-7-(methylamino)-1,6-naphthyridin-3-yl)phenyl)-3-(4-fluoro-4-methylpentyl)urea hydrochloride] | 0.5-4.9 fold | 9 to 504 | – |
| Cc1nc2cc(NC(=O)C3CC3)ncc2cc1-c1cc(NC(=O)NCCC2CC2)c(F)cc1F [Example 123, N-(3-(5-(3-(2-cyclopropylethyl)ureido)-2,4-difluorophenyl)-2-methyl-1,6-naphthyridin-7-yl)cyclopropanecarboxamid hydrochloride] | 0.5-4.9 fold | 9 to 504 | – |
| Cc1cc(F)c(NC(=O)NCCC(C)(C)C)cc1-c1cc2cnc(N)cc2nc1C [Example 129, 1-(5-(7-amino-2-methyl-1,6-naphthyridin-3-yl)-2-fluoro-4-methylphenyl)-3-(3,3-dimethylbutyl)urea hydrochloride] | – | 9 to 504 | 2 to 96 |
